In patent US20100015058A1, “RADIOLABELED BBN-RGD HETERODIMERS FOR CANCER TARGETING” (STANFORD UNIVERSITY, priority 2008, published 2010):

What was measured:
in vivo [1] = conditions: mouse, in vivo, iv, total radioactivity
Method: (a) PET scans and image analysis were performed using a micro-PET R4 rodent model scanner (Siemens Medical Solutions) as reported by Li et al., J. Nucl. Med. (2007) 48: 1162-1171 and Wu et al., J Nucl. Med. (2005) 46: 1707-1718, both of which are incorporated herein by reference in their entireties). […] Five-minute static PET images were then acquired at 0.5, 1, and 2 h after injection. The images were reconstructed by a 2-dimensional ordered-subsets expectation maximum (OSEM) algorithm. No attenuation or scatter correction was applied. […] The 5-min static PET scans were then acquired at 1 hr after injection. For each small-animal PET scan, regions of interest (ROIs) were drawn over the tumor, normal tissue, and major organs by using vendor software (ASI Pro 5.2.4.0) on decay-corrected whole-body coronal images. The average radioactivity concentration (accumulation) within a tumor or an organ was obtained from mean pixel values within the multiple ROI volume, which were converted to counts/mL/min using a conversion factor. Assuming a tissue density of 1 g/mL, the ROIs were converted to counts/g/min, and then divided by the administered activity to obtain an imaging ROI-derived percentage injected dose per gram of tissue (% ID/g).
For dynamic PET, 30-min scans (1×30 s, 4×1 min, 1×1.5 min, 4×2 min, 5×3 min; total 15 frames) were started 1 min after injection, and two 5-min static PET images were also acquired at 1 h and 2 h after injection. […] For each small-animal PET scan, regions of interest (ROIs) were drawn over the tumor, normal tissue, and major organs using vendor software ASI Pro 5.2.4.0 on decay-corrected whole-body coronal images. The maximum radioactivity concentrations (accumulation) within a tumor or an organ were obtained from mean pixel values within the multiple ROI volume, and were converted to megabecquerels per milliliter per minute using a conversion factor. These values were then divided by the administered activity to obtain (assuming a tissue density of 1 g/ml) an image ROI-derived percent injected dose per gram (% ID/g).
The images were reconstructed using a 2-dimensional ordered-subsets expectation maximum algorithm without attenuation or scatter correction.
For each small-animal PET scan, regions of interest were drawn over each tumor, over normal tissue, and over major organs using vendor software (ASI Pro, version 5.2.4.0) on decay-corrected whole-body coronal images. The maximum radioactivity concentration (accumulation) within a tumor or an organ was obtained from the mean pixel values within the multiple-region-of-interest volume, which were converted to MBq/mL/min using a conversion factor. Assuming a tissue density of 1 g/mL, the regions of interest were converted to MBq/g/min and then divided by the administered activity to obtain an imaging region-of-interest-derived percentage injected dose (% ID)/g.

PC-3 tumor cells [2] = assay: Cell uptake assay on PC-3 tumor cells; type: cell-based, human; conditions: PC-3 cells
Method: In the cell uptake experiment, PC-3 cells were seeded into 12-well plates at a density of 5×10^5 cells per well for overnight incubation. Cells were rinsed 3 times with phosphate-buffered saline (PBS), followed by the addition of ^18F-FB-RGD, ^18F-FB-BBN, or ^18F-BBN-RGD to the cultured wells in triplicate (about 2 μCi/well). […] The cell lysate was collected in measurement tubes for counting. The cell uptake was normalized in terms of added radioactivity.
(§1) The cell uptake studies were performed as we have previously described with some modifications (Chen et al., Mol Imaging Biol. (2004) […]; Cai et al., (2006) J. Nuc. Med. 47: 1172-1180, incorporated herein by reference in their entireties). Briefly, PC-3 cells were seeded into 12-well plates at a density of 5×10^5 cells per well and incubated (about 18 kBq/well) with ^68Ga-labeled tracers at 37° C. for 15, 30, 60, and 120 min. Tumor cells were then washed three times with chilled PBS and harvested by trypsinization with 0.25% trypsin/0.02% EDTA (Invitrogen). The cell suspensions were collected and measured in a y counter (Packard, Meriden, Conn.). The cell uptake was expressed as the percent added dose (% AD) after decay correction. Experiments were performed twice with triplicate wells. For efflux studies, ^68Ga-labeled tracers (about 18 kBq/well) were first incubated with PC-3 cells in 12-well plates for 1 h at 37° C. to allow internalization. Then cells were washed twice with PBS, and incubated with cell culture medium for 15, 30, and 60 min. After washing three times with PBS, cells were harvested by trypsinization with 0.25% trypsin/0.02% EDTA. The cell suspensions were collected and measured in a γ counter. Experiments were performed twice with triplicate wells. Data are expressed as percent added dose after decay correction.

in vivo [3] = assay: in vivo; parameters: species or system mice; conditions: female, BALB/c, mouse, iv, 3.7 MBq, total radioactivity
Method: The 4T1 murine breast cancer cell line was purchased from American Type Culture Collection and grown in RMPI 1640 medium (Invitrogen Corp.) supplemented with 10% (v/v) fetal bovine serum (Invitrogen) at 37° C. with 5% CO2. The 4T1 tumor model was generated by subcutaneous injection of 5×10^6 tumor cells into the left front flank of female normal BALB/c mice (Harlan).
Five-minute static PET images were then acquired at 2 h after injection (n=3/group).

[4] = Small-animal PET of MDA-MB-435 tumor-bearing mice; conditions: female, athymic nude, mouse, in vivo, iv, 3.7 MBq, total radioactivity, MDA-MB435 tumor uptake
Method: The MDA-MB435 tumor model was established by orthotopic injections of 5×10^6 cells into the right mammary fat pad of female athymic nude mice. […] The mice were subjected to microPET studies when the tumor volume reached 100-300 mm^3 (2-3 weeks for MDA-MB-435, and 4-5 wk for T47D).
For static PET, 5-min scans were acquired at 30 min, 1 h, and 2 h after injection. For dynamic PET, 30-min scans (1×30 s, 4×1 min, 1×1.5 min, 4×2 min, 5×3 min; total 15 frames) were started 1 min after injection, and two 5-min static PET images were also acquired at 1 h and 2 h after injection. The images were reconstructed using a two-dimensional ordered subsets expectation maximum (OSEM) algorithm and no correction was applied for attenuation or scatter. […] For each small-animal PET scan, regions of interest (ROIs) were drawn over the tumor, normal tissue, and major organs using vendor software ASI Pro 5.2.4.0 on decay-corrected whole-body coronal images. The maximum radioactivity concentrations (accumulation) within a tumor or an organ were obtained from mean pixel values within the multiple ROI volume, and were converted to megabecquerels per milliliter per minute using a conversion factor. These values were then divided by the administered activity to obtain (assuming a tissue density of 1 g/ml) an image ROI-derived percent injected dose per gram (% ID/g).
Quantification of tumor and major organ activity accumulation in the microPET scans was realized by measuring the regions of interest (ROIs) that encompassing the entire organ on the coronal images.

PC-3 tumor cells [5] = type: cell-based, human; conditions: PC-3 cells, 60 min efflux, FIG. 14D
Method: In the cell efflux experiment, PC-3 cells were seeded into 12-well plates at a density of 5×10^5 cells per well for overnight incubation. Cells were rinsed 3 times with PBS and then the appropriate ^18F-labeled peptide tracer was added. The cells were incubated at 37° C. for 2 hr, washed with PBS, and then reincubated with serum-free medium. The cells were washed at different time points (0, 15, 30, 60, 120, 180 min) with PBS and lysed with NaOH-SDS (0.2 M NaOH, 1% SDS). The cell lysate was collected in measurement tubes for counting. Efflux values at different time points were calculated by subtracting retention from 0-min retention, and normalized by dividing the total counts at 0 min.
as §1

DU-145 tumor = type: in vivo, mice; conditions: integrin αvβ3-positive, low GRPR-expressing tumor
Method: The PC-3 and DU-145 human prostate carcinoma cell lines were purchased from American Type Culture Collection. PC-3 cells were grown in F-12K nutrient mixture (Kaighn's modification) (Invitrogen Corp.), and DU-145 cells were grown in minimum essential medium (Eagle) mixture supplemented with 10% (v/v) fetal bovine serum (Invitrogen) at 37° C. with 5% CO2. The PC-3 and DU-145 tumor models were generated by subcutaneous injection of 5×10^6 tumor cells into the front flank of male athymic nude mice (Harlan).
No attenuation or scatter correction was applied.

[6] = male, athymic nude, 5.5 MBq, Blood uptake
[7] = male, athymic nude, 5.5 MBq, Tumor uptake

Row | Molecule | tissue uptake at 0.5 h (in vivo [1]; [7]) [%ID/g] | tissue uptake at 1 h (in vivo [1]; [7]) [%ID/g] | tissue uptake at 4 h (in vivo [1]; [7]) [%ID/g] | tissue uptake at 20 h (in vivo [1]; [7]) [%ID/g] | tissue uptake at 1 h (in vivo [1]; 5.5 MBq, Blood uptake) [%ID/g] | tissue uptake at 4 h (in vivo [1]; 5.5 MBq, Blood uptake) [%ID/g] | tissue uptake at 20 h (in vivo [1]; 5.5 MBq, Blood uptake) [%ID/g] | tissue uptake at 0.5 h (in vivo [1]; 5.5 MBq, Kidney uptake) [%ID/g] | tissue uptake at 1 h (in vivo [1]; 5.5 MBq, Kidney uptake) [%ID/g] | tissue uptake at 4 h (in vivo [1]; 5.5 MBq, Kidney uptake) [%ID/g] | tissue uptake at 20 h (in vivo [1]; 5.5 MBq, Kidney uptake) [%ID/g] | tissue uptake at 0.5 h (in vivo [1]; 5.5 MBq, Liver uptake) [%ID/g] | tissue uptake at 1 h (in vivo [1]; 5.5 MBq, Liver uptake) [%ID/g] | tissue uptake at 4 h (in vivo [1]; 5.5 MBq, Liver uptake) [%ID/g] | tissue uptake at 20 h (in vivo [1]; 5.5 MBq, Liver uptake) [%ID/g] | other results
1 | CSCC[C@H](NC(=O)[C@H](CC(C)C)NC(=O)[C@H](Cc1c[nH]cn1)NC(=O)CNC(=O)[C@@H](NC(=O)[C@H](C)NC(=O)[C@H](Cc1c[nH]c2ccccc12)NC(=O)[C@H](CCC(N)=O)NC(=O)CCCCCNC(=O)CC[C@H](NC(=O)CN1CCN(CC(=O)O)CCN(CC(=O)O)CCN(CC(=O)O)CC1)C(=O)NCCCC[C@@H]1NC(=O)[C@@H](Cc2ccc(O)cc2)NC(=O)[C@H](CC(=O)O)NC(=O)CNC(=O)[C@H](CCCNC(=N)N)NC1=O)C(C)C)C(N)=O [^64Cu-DOTA-RGD-BBN, metal not drawn] | 3.05 ± 0.56 | 1.87 ± 0.41 | 1.05 ± 0.49 | 0.97 ± 0.24 | 0.69 ± 0.24 | 0.45 ± 0.2 | 0.31 ± 0.13 | 5.99 ± 1.61 | 3.4 ± 1.25 | 2.51 ± 0.47 | 1.64 ± 0.34 | 3.4 ± 1.42 | 3.05 ± 1.07 | 2.33 ± 0.88 | 1.74 ± 0.9 | tissue uptake at 0.5 h (in vivo [1]; [6]): 1.15 ± 0.49 %ID/g; cell uptake value (PC-3 tumor cells [2]; 120 min): 3.70 % added dose
2 | CSCC[C@H](NC(=O)[C@H](CC(C)C)NC(=O)[C@H](Cc1c[nH]cn1)NC(=O)CNC(=O)[C@@H](NC(=O)[C@H](C)NC(=O)[C@H](Cc1c[nH]c2ccccc12)NC(=O)[C@H](CCC(N)=O)NC(=O)CCCCCNC(=S)Nc1ccc(C[C@H]2CN(CC(=O)O)CCN(CC(=O)O)CCN2CC(=O)O)cc1)C(C)C)C(N)=O [^64Cu-NOTA-BBN, metal not drawn, reference compound] | 2.28 ± 0.35 | 1.25 ± 1.03 | 0.56 ± 0.4 | 0.44 ± 0.39 | 0.23 ± 0.11 | 0.19 ± 0.1 | 0.15 ± 0.05 | 3.55 ± 1.17 | 1.5 ± 0.39 | 0.76 ± 0.45 | 0.5 ± 0.44 | 10.4 ± 2.27 | 8.85 ± 1.61 | 6.35 ± 0.57 | 4.2 ± 0.53 | tissue uptake at 2 h (in vivo [3]): 0.33 ± 0.18 %ID/g; tissue uptake at 0.5 h (in vivo [1]; [6]): < 1 %ID/g; tissue uptake at 24 h (in vivo [1]; [7]): 0.44 ± 0.39 %ID/g
3 | N=C(N)NCCC[C@@H]1NC(=O)[C@H](CCCCNC(=S)Nc2ccc(C[C@H]3CN(CC(=O)O)CCN(CC(=O)O)CCN3CC(=O)O)cc2)NC(=O)[C@@H](Cc2ccc(O)cc2)NC(=O)[C@H](CC(=O)O)NC(=O)CNC1=O [^64Cu-NOTA-RGD, metal not drawn, reference compound] | 1.01 ± 0.29 | 0.83 ± 0.24 | 0.66 ± 0.21 | 0.55 ± 0.32 | 0.43 ± 0.32 | 0.3 ± 0.11 | 0.34 ± 0.18 | 3.37 ± 0.89 | 2.13 ± 0.85 | 1.43 ± 0.68 | 0.98 ± 0.48 | 2.86 ± 1.06 | 2.68 ± 1.15 | 2.15 ± 0.79 | 1.67 ± 0.69 | tissue uptake at 2 h (in vivo [3]): 0.65 ± 0.07 %ID/g
4 | CSCC[C@H](NC(=O)[C@H](CC(C)C)NC(=O)[C@H](Cc1c[nH]cn1)NC(=O)CNC(=O)[C@@H](NC(=O)[C@H](C)NC(=O)[C@H](Cc1c[nH]c2ccccc12)NC(=O)[C@H](CCC(N)=O)NC(=O)CCCCCNC(=S)Nc1ccc(C[C@H]2CN(CC(=O)O)CCN(CC(=O)O)CCN2CC(=O)O)cc1)C(C)C)C(N)=O [^68Ga-NOTA-BBN, metal not drawn, reference compound] |  |  |  |  |  |  |  |  |  |  |  |  |  |  |  | tissue uptake at 0.5 h (in vivo [1]; male, athymic nude, 3.7 MBq, liver uptake (highest)): 2 %ID/g; tissue uptake at 1 h [4]: 0.38 ± 0.5 %ID/g; cell-associated tracer (cell retention) (PC-3 tumor cells [5]): 6.70±1.00 % AD
5 | N=C(N)NCCC[C@@H]1NC(=O)[C@H](CCCCNC(=S)Nc2ccc(C[C@H]3CN(CC(=O)O)CCN(CC(=O)O)CCN3CC(=O)O)cc2)NC(=O)[C@@H](Cc2ccc(O)cc2)NC(=O)[C@H](CC(=O)O)NC(=O)CNC1=O [^68Ga-NOTA-RGD, metal not drawn, reference compound] |  |  |  |  |  |  |  |  |  |  |  |  |  |  |  | tissue uptake at 1 h [4]: 1.63 ± 0.59 %ID/g
6 | ^18F-FB-BBN-RGD: ^18F-fluorobenzoate-labeled heterodimer of BBN(7-14) and c(RGDyK) joined through a glutamate linker |  |  |  |  |  |  |  |  |  |  |  |  |  |  |  | detection of the DU-145 tumor by PET (DU-145 tumor): able to visualize this tumor model
7 | ^18F-FB-RGD: ^18F-fluorobenzoate-labeled monomeric RGD peptide c(RGDyK) [reference compound] |  |  |  |  |  |  |  |  |  |  |  |  |  |  |  | cell uptake (PC-3 tumor cells [2]; 37° C., normalized to added radioactivity): < 0.5%; detection of the DU-145 tumor by PET (DU-145 tumor): able to visualize this tumor model
